For assay [1], the system named is Type A influenza strain A/PR8 (H1N1). Details: species or system mice. The note with it: mouse, in vivo.
The target of assay [2] is T1, glucose-6-phosphate dehydrogenase (G6PD) (Saccharomyces cerevisiae, UniProt P11412).
T1 construct: purchased Sigma Corp
Nature of the assay: Protein denaturation experiment: enzyme activity of G6PD reacted with chlorine dioxide. The note with it: 0.07 ppm chlorine dioxide in PBS pH7; 25° C., 2 minutes; compared with 0 ppm. Type of assay: biochemical, yeast. The procedure:
The enzyme activity of G6PD was determined by observing absorption of NADPH by a spectral photometer, with using NADP and glucose-phosphoric acid as the substrate. Specific reaction conditions were set according to the manufacturer's (Sigma Corp.) instructions.
The concentration values on the horizontal axis are shown as being converted into the unit of ppm. The “specific activity” on the vertical axis represents enzyme activity (unit/mg) per 1 mg of protein

Assay [3] deals with Type A influenza strain A/PR8 (H1N1). Conditions: mouse, in vivo.

One compound from patent US8486431B2 (priority 2005, dated 2013) can be followed below.

T1 sequence (P11412 whole entry): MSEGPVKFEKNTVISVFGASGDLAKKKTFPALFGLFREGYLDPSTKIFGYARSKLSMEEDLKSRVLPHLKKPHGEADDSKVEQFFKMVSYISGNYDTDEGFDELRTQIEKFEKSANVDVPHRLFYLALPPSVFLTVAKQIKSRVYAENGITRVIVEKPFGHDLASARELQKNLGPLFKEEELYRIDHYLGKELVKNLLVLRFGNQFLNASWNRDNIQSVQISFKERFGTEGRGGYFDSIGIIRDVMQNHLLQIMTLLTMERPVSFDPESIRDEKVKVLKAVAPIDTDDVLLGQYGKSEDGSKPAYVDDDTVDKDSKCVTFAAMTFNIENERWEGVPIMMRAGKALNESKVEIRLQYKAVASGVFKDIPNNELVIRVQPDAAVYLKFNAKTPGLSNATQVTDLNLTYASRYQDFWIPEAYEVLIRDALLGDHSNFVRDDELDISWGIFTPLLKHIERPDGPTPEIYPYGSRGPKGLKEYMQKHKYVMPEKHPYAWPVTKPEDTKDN

Consider `[O][Cl+][O-]` [chlorine dioxide], for which, in assay [1], the “Total virus amount in lung tissues on Day 3 after 10 LD50 virus exposure (TClD50 values)” value was 10^3 TClD50, the “lung virus amount relative to that of the control group (0 ppm group)” value came to 5% and the “total virus amounts in lung after delayed administration” value is “smaller than expected”. The “reduction in the enzyme activity of G6PD” value in assay [2] is given as “about 60%”. Moreover, in assay [3], the “chlorine dioxide concentration required for preventing influenza virus infection” value stood at 0.0001 ppm; the “chlorine dioxide gas concentration effective for influenza onset inhibition” value is listed as “at least 0.05 ppm”; the “deaths compared with 0 ppm group” value is “deaths occurred with delay”; the “number of onsets of influenza and virus amount in the lung versus control group (0 ppm)” value is on record as “no significant difference was found”.
